Like-named read-outs stand apart in the source and are kept apart here.
What was measured:
[1] = target: T1, PDK1 kinase (Homo sapiens, UniProt O15530); assay: PDK1 Kinase Alpha Screen Assay; assay type: biochemical
T1 sequence (O15530 1-556): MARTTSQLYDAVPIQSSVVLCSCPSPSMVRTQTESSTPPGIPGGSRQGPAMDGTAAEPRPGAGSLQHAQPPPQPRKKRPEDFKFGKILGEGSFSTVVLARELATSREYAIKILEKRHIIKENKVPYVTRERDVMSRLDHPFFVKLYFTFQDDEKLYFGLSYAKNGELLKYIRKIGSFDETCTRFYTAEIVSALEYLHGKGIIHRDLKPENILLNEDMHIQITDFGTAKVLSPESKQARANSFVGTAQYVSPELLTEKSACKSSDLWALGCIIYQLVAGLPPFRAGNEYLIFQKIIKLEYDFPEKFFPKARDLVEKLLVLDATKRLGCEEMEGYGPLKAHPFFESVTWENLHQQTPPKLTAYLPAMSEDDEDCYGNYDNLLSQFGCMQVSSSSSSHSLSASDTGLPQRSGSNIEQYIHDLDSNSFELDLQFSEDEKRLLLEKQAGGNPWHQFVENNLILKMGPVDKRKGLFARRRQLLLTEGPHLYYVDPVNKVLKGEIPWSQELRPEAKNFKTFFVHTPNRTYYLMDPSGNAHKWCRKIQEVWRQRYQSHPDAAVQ
Procedure, shortened: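 PDK1 phosphorylated 50 nM biotinylated PDK1-4 peptide with 10 uM ATP in Tris pH 7.5, 10 mM MgCl2, 2 mM DTT, 2.5% DMSO for 3-18 hours. After EDTA stop, phosphopeptide was detected by AlphaScreen using phospho-(Ser/Thr) PKA substrate antibody with protein A/streptavidin beads, read after overnight incubation.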

[2] = tested on: PC-3 cells; assay: Cell Proliferation Assay (Cell Titer Glo), PC-3 cell line; assay type: cell-based; details: read-out: CPEC50 PC3
Procedure, shortened: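 PC-3 cells, 1000 cells/well, left to adhere 3-5 h, then exposed for 3 days at 37° C to compounds as 1:3 serial dilutions from 500× DMSO stocks diluted in growth medium. Medium then replaced with fresh medium and viability read by Cell Titer Glo luminescence.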

[3] = PDK1 Kinase Alpha Screen Assay, read-out: PDK1 IC50
[4] = Homo sapiens, PC-3, Cell Proliferation Assay, PC3
[5] = head of the second part of Table 4: BV11261, read-out: PDK1 BV11261

Compound	IC50 [1, 3] [µM]	EC50 [2, 4] [µM]	other results
O=C(NC1CC1)c1cc(Nc2ncc3cccc(OC4CCNCC4)c3n2)ccc1N1CCOCC1 [Compound 456, N-cyclopropyl-2-morpholino-5-(8-(piperidin-4-yloxy)quinazolin-2-ylamino)benzamide]	< 5	< 5	
COc1c(-c2cnn(C)c2)cc(Cl)c2cnc(Nc3ccc(C(=O)NC(C)C)cc3)nc12 [Compound 1034, 4-(5-chloro-8-methoxy-7-(1-methyl-1H-pyrazol-4-yl)quinazolin-2-ylamino)-N-isopropylbenzamide]			IC50 [1, 5]: < 5 µM; EC50 ([2]; Homo sapiens, PC-3, PC3 cells): < 5 µM
CC(C)NC(=O)c1ccc(Nc2ncc3ccc(-c4ccc5c(c4)CCNC5=O)cc3n2)cc1 [Compound 1040, N-isopropyl-4-(7-(1-oxo-1,2,3,4-tetrahydroisoquinolin-6-yl)quinazolin-2-ylamino)benzamide]			IC50 [1, 5]: < 5 µM; EC50 ([2]; Homo sapiens, PC-3, PC3 cells): 5 to 10 µM
CC(C)N1CCC(c2c(O)ccc3cnc(Nc4ccc(N5CCOCC5)cc4)nc23)CC1 [Compound 328, 8-(1-isopropylpiperidin-4-yl)-2-(4-morpholinophenylamino)quinazolin-7-ol]	< 5	< 5	
8-(6-(2-(pyrrolidin-1- yl)ethylamino)pyridin-3-yl)-N-(4- (trifluoromethoxy)phenyl)quinazoin- 2-amine [Compound 394]	< 5		EC50 ([2]; Cell Proliferation Assay, PC3): < 5 µM
Fc1cc(F)cc(Nc2ncc3ccc(OC4CCNCC4)cc3n2)c1 [Compound 568, N-(3,5-difluorophenyl)-7-(piperidin-4-yloxy)quinazolin-2-amine]	< 5	< 5	
Fc1cc(F)cc(Nc2ncc3cccc(-c4ccc(NCCN5CCCC5)nc4)c3n2)c1 [Compound 428, N-(3,5-difluorophenyl)-8-(6-(2-(pyrrolidin-1-yl)ethylamino)pyridin-3-yl)quinazolin-2-amine]	< 5	< 5	
Clc1cc(Nc2ncc3c(Cl)ccc(OC4CNC4)c3n2)ccc1N1CCOCC1 [Compound 611, 8-(azetidin-3-yloxy)-5-chloro-N-(3-chloro-4-morpholinophenyl)quinazolin-2-amine]	< 5	< 5	
O=C1CN(C(=O)c2ccc(Nc3ncc4cccc(OC5CCNCC5)c4n3)cc2F)CCN1 [Compound 494, 4-(2-fluoro-4-(8-(piperidin-4-yloxy)quinazolin-2-ylamino)benzoyl)piperazin-2-one]	< 5	5 to 10	
FC(F)(F)c1cccc(Nc2ncc3cccc(-c4ccc(NCCN5CCCC5)nc4)c3n2)c1 [Compound 1023, 8-(6-(2-(pyrrolidin-1-yl)ethylamino)pyridin-3-yl)-N-(3-(trifluoromethyl)phenyl)quinazolin-2-amine]			IC50 ([1]; read-out: PDK1 IC50): < 5 µM; EC50 ([2]; Homo sapiens, PC-3, PC3 cells): < 5 µM
O=C(c1ccc(Nc2ncc3cccc(OC4CCNCC4)c3n2)cc1Cl)N1CCOCC1 [Compound 483, (2-chloro-4-(8-(piperidin-4-yloxy)quinazolin-2-ylamino)phenyl)(morpholino)methanone]	< 5	< 5	
COc1c(-c2cnn(C)c2)cc(Cl)c2cnc(Nc3cccc(N4CCOCC4)c3)nc12 [Compound 1036, 5-chloro-8-methoxy-7-(1-methyl-1H-pyrazol-4-yl)-N-(3-morpholinophenyl)quinazolin-2-amine]			IC50 [1, 5]: < 5 µM; EC50 ([2]; Homo sapiens, PC-3, PC3 cells): < 5 µM
O=C(c1cc(Nc2ncc3cccc(OC4CCNCC4)c3n2)cc(C(F)(F)F)c1)N1CCOCC1 [Compound 454, morpholino(3-(8-(piperidin-4-yloxy)quinazolin-2-ylamino)-5-(trifluoromethyl)phenyl)methanone]	< 5	5 to 10	
CC(C)N1CCC(Oc2ccc3cnc(Nc4cccc(N5CCN(C)CC5)c4)nc3c2)CC1 [Compound 582, 7-(1-isopropylpiperidin-4-yloxy)-N-(3-(4-methylpiperazin-1-yl)phenyl)quinazolin-2-amine]	< 5	5 to 10	
FC(F)(F)c1ccc(OC2CCNCC2)c2nc(Nc3ccc(N4CCOCC4)cc3)ncc12 [Compound 385, N-(4-morpholinophenyl)-8-(piperidin-4-yloxy)-5-(trifluoromethyl)quinazolin-2-amine]	< 5		EC50 ([2]; Cell Proliferation Assay, PC3): < 5 µM
C#Cc1cc(OC2CCNCC2)c2nc(Nc3ccc(C(=O)N4CCOCC4)cc3)ncc2c1Cl [Compound 708, (4-(5-chloro-6-ethynyl-8-(piperidin-4-yloxy)quinazolin-2-ylamino)phenyl)(morpholino)methanone]	< 5		EC50 ([2]; Homo sapiens, PC-3, Cell Proliferation Assay, PC3 cells): < 5 µM

Compound	IC50 [1, 3] [µM]	EC50 [2, 4] [µM]	other results
COc1c(NC2CCN(C)CC2)cc(Cl)c2cnc(Nc3ccc(C(=O)N4CCOCC4)cc3)nc12 [Compound 503, (4-(5-chloro-8-methoxy-7-(1-methylpiperidin-4-ylamino)quinazolin-2-ylamino)phenyl)(morpholino)methanone]	< 5	5 to 10	
COc1cccc(Nc2ncc3ccc(OC4CCNCC4)cc3n2)c1 [Compound 571, N-(3-methoxyphenyl)-7-(piperidin-4-yloxy)quinazolin-2-amine]	< 5	< 5	
Fc1ccc(Nc2ncc3cccc(OC4CCNCC4)c3n2)cc1C1=CCNCC1 [Compound 487, N-(4-fluoro-3-(1,2,3,6-tetrahydropyridin-4-yl)phenyl)-8-(piperidin-4-yloxy)quinazolin-2-amine]	< 5	< 5	
Clc1ccc(OC2CNC2)c2nc(Nc3ccc(N4CCOCC4)cc3)ncc12 [Compound 609, 8-(azetidin-3-yloxy)-5-chloro-N-(4-morpholinophenyl)quinazolin-2-amine]	< 5	5 to 10	
NS(=O)(=O)c1ccc(Nc2ncc3cccc(Oc4ccc(F)nc4)c3n2)cc1 [Compound 413, 4-(8-(6-fluoropyridin-3-yloxy)quinazolin-2-ylamino)benzenesulfonamide]	< 5	< 5	
COc1cc(S(N)(=O)=O)c(OC)cc1Nc1ncc2ccc(OC3CCNCC3)cc2n1 [Compound 321, 2,5-dimethoxy-4-(7-(piperidin-4-yloxy)quinazolin-2-ylamino)benzenesulfonamide]	< 5	5 to 10	
Nc1ccc(S(=O)(=O)N(CCN2CCCC2)c2ncc3cccc(OC4CCNCC4)c3n2)cc1 [Compound 422, 4-amino-N-(8-(piperidin-4-yloxy)quinazolin-2-yl)-N-(2-(pyrrolidin-1-yl)ethyl)benzenesulfonamide]	5 to 10	5 to 10	
NS(=O)(=O)c1ccc(Nc2ncc3cccc(-c4cnc(NCCN5CCCC5)c(C(F)(F)F)c4)c3n2)cc1 [Compound 404, 4-(8-(6-(2-(pyrrolidin-1-yl)ethylamino)-5-(trifluoromethyl)pyridin-3-yl)quinazolin-2-ylamino)benzenesulfonamide]	< 5	< 5	
CC(C)N1CCC(Oc2ccc3cnc(Nc4cccc(N5CCOCC5)c4)nc3c2)CC1 [Compound 580, 7-(1-isopropylpiperidin-4-yloxy)-N-(3-morpholinophenyl)quinazolin-2-amine]	5 to 10	5 to 10	
COCCNC(=O)c1ccc(Nc2ncc3cccc(OC4CCNCC4)c3n2)cc1F [Compound 445, 2-fluoro-N-(2-methoxyethyl)-4-(8-(piperidin-4-yloxy)quinazolin-2-ylamino)benzamide]	< 5	< 5	
CS(=O)(=O)CCNC(=O)c1ccc(Nc2ncc3cccc(OC4CCNCC4)c3n2)cc1F [Compound 493, 2-fluoro-N-(2-(methylsulfonyl)ethyl)-4-(8-(piperidin-4-yloxy)quinazolin-2-ylamino)benzamide]	< 5	< 5	
Fc1ccc(Nc2ncc3cccc(-c4ccc(NCCN5CCCC5)nc4)c3n2)c(F)c1 [Compound 1017, N-(2,4-difluorophenyl)-8-(6-(2-(pyrrolidin-1-yl)ethylamino)pyridin-3-yl)quinazolin-2-amine]			IC50 ([1]; read-out: PDK1 IC50): < 5 µM; EC50 ([2]; Homo sapiens, PC-3, PC3 cells): < 5 µM
CN(C)[C@H]1CCN(Cc2cccc3cnc(Nc4ccc(S(N)(=O)=O)cc4)nc23)C1 [Compound 936, (S)-4-(8-((3-(dimethylamino)pyrrolidin-1-yl)methyl)quinazolin-2-ylamino)benzenesulfonamide]			IC50 ([1]; read-out: PDK1 IC50): < 5 µM; EC50 ([2]; Homo sapiens, PC-3, PC3 cells): < 5 µM
O=C(NC1CCOCC1)c1ccc(Nc2ncc3cccc(OC4CCNCC4)c3n2)cc1F [Compound 440, 2-fluoro-4-(8-(piperidin-4-yloxy)quinazolin-2-ylamino)-N-(tetrahydro-2H-pyran-4-yl)benzamide]	< 5	< 5	
COc1ccc(NC(C)=O)cc1Nc1ncc2cccc(OC3CCNCC3)c2n1 [Compound 547, N-(4-methoxy-3-(8-(piperidin-4-yloxy)quinazolin-2-ylamino)phenyl)acetamide]	5 to 10	5 to 10	

— patent US7932262B2 (Novartis AG, priority 2006, dated 2011)
